Where “and” joins values, the source holds several entries; their conditions need not be identical. Equal values may be shown once. Inconclusive results and toxic doses are left out.
Test system: L1210 leukemia ip in BDF1 mice, survival T/C
Experiment: NCI In Vivo Anticancer Drug Screen. Data for tumor model L1210 Leukemia (intraperitoneal) in B6D2F1 (BDF1) mice
Conditions: endpoint: mean survival time, higher = longer survival
How it was run: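 Transplantable tumor model; survival measured in treated vs vehicle control mice. Value = treated/control.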

[1] = dose: 100.0 mg/kg/injection, schedule: Q01DX009 (ip), vehicle: Klucel (hydroxypropylcellulose) (HPC)
[2] = dose: 200.0 mg/kg/injection, schedule: Q01DX009 (ip), vehicle: Klucel (hydroxypropylcellulose) (HPC)
[3] = dose: 400.0 mg/kg/injection, schedule: Q01DX009 (ip), vehicle: Klucel (hydroxypropylcellulose) (HPC)
[4] = dose: 100.0 mg/kg/injection, schedule: Q04DX003 (ip), vehicle: saline with Tween-80
[5] = dose: 200.0 mg/kg/injection, schedule: Q04DX003 (ip), vehicle: saline with Tween-80
[6] = dose: 400.0 mg/kg/injection, schedule: Q04DX003 (ip), vehicle: saline with Tween-80
[7] = dose: 100.0 mg/kg/injection, schedule: Q04DX002 (ip), vehicle: Klucel (hydroxypropylcellulose) (HPC)
[8] = dose: 200.0 mg/kg/injection, schedule: Q04DX002 (ip), vehicle: Klucel (hydroxypropylcellulose) (HPC)
[9] = dose: 400.0 mg/kg/injection, schedule: Q04DX002 (ip), vehicle: Klucel (hydroxypropylcellulose) (HPC)
[10] = dose: 100.0 mg/kg/injection, schedule: Q04DX003 (ip), vehicle: Klucel (hydroxypropylcellulose) (HPC)
[11] = dose: 200.0 mg/kg/injection, schedule: Q04DX003 (ip), vehicle: Klucel (hydroxypropylcellulose) (HPC)
[12] = dose: 400.0 mg/kg/injection, schedule: Q04DX003 (ip), vehicle: Klucel (hydroxypropylcellulose) (HPC)
[13] = dose: 100.0 mg/kg/injection, schedule: Q01DX001 (ip), vehicle: saline

Compound: N#CC1(Nc2cccc(C(F)(F)F)c2)CCCCC1
- T/C [1]: 94 % of control
- T/C [2]: 105 % of control
- T/C [3]: 100 % of control

Compound: Cc1ccc(N2CCN(c3ccc([N+](=O)[O-])cc3)CC2)cc1Cl
- T/C [4]: 100 % of control
- T/C [5]: 100 % of control
- T/C [6]: 98 % of control

Compound: CCOC(=O)C(O)c1ccccc1 (configuration not stated)
- T/C [4]: 98 % of control
- T/C [5]: 98 % of control
- T/C [6]: 98 % of control

Compound: O=[N+]([O-])c1ccc(/C=C/c2ccc(OCc3ccccc3)cc2)cc1Cl
- T/C [7]: 96 % of control
- T/C [8]: 96 % of control
- T/C [9]: 96 % of control

Compound: O=C(NCCCl)Nc1ccc(C(=O)O)c(O)c1
- T/C (dose: 80.0 mg/kg/injection, schedule: Q04DX002 (ip), vehicle: Klucel (hydroxypropylcellulose) (HPC)): 98 % of control
- T/C (dose: 160.0 mg/kg/injection, schedule: Q04DX002 (ip), vehicle: Klucel (hydroxypropylcellulose) (HPC)): 88 % of control
- T/C (dose: 320.0 mg/kg/injection, schedule: Q04DX002 (ip), vehicle: Klucel (hydroxypropylcellulose) (HPC)): 91 % of control

Compound: CCOC(=O)C(NC=O)(C(=O)OCC)C(C)c1c[nH]c2ccccc12 (configuration not stated)
- T/C (dose: 100.0 mg/kg/injection, schedule: Q01DX001 (ip), vehicle: saline with Tween-80): 93 % of control
- T/C (dose: 100.0 mg/kg/injection, schedule: Q01DX009 (ip), vehicle: saline with Tween-80): 102 % of control
- T/C (dose: 200.0 mg/kg/injection, schedule: Q01DX001 (ip), vehicle: saline with Tween-80): 94 % of control
- T/C (dose: 200.0 mg/kg/injection, schedule: Q01DX009 (ip), vehicle: saline with Tween-80): 98 % of control
- T/C (dose: 400.0 mg/kg/injection, schedule: Q01DX001 (ip), vehicle: saline with Tween-80): 100 % of control
- T/C (dose: 400.0 mg/kg/injection, schedule: Q01DX009 (ip), vehicle: saline with Tween-80): 94 % of control

Compound: COC(=O)c1ccc(OCCOc2ccc(C(C)(C)CC(C)(C)C)cc2)c(N)c1
- T/C [1]: 97 % of control
- T/C [2]: 105 % of control
- T/C [3]: 91 % of control

Compound: CC1(/C=N\NC(N)=O)CC2C=CC1C2 (configuration not stated)
- T/C [10]: 104 % of control
- T/C [11]: 98 % of control

Compound: O=C(OCC(COC(=O)c1ccccc1)(COC(=O)c1ccccc1)COC(=O)c1ccccc1)c1ccccc1
- T/C [1]: 91 % of control
- T/C [10]: 91 % of control
- T/C [2]: 105 % of control
- T/C [11]: 99 % of control
- T/C [3]: 96 % of control
- T/C [12]: 98 % of control

Compound: Cc1ccc(/C=C/c2ccccc2)cc1
- T/C (dose: 75.0 mg/kg/injection, schedule: Q01DX009 (ip), vehicle: Klucel (hydroxypropylcellulose) (HPC)): 98 % of control
- T/C (dose: 150.0 mg/kg/injection, schedule: Q01DX009 (ip), vehicle: Klucel (hydroxypropylcellulose) (HPC)): 104 % of control
- T/C (dose: 300.0 mg/kg/injection, schedule: Q01DX009 (ip), vehicle: Klucel (hydroxypropylcellulose) (HPC)): 103 % of control

Compound: C=CCOc1cc(C)ccc1C
- T/C (dose: 100.0 mg/kg/injection, schedule: Q01DX001 (ip), vehicle: carboxymethylcellulose (CMC)): 98 % of control
- T/C (dose: 200.0 mg/kg/injection, schedule: Q01DX001 (ip), vehicle: carboxymethylcellulose (CMC)): 95 % of control
- T/C (dose: 400.0 mg/kg/injection, schedule: Q01DX001 (ip), vehicle: carboxymethylcellulose (CMC)): 98 % of control

Compound: CCNCCC[P+](c1ccccc1)(c1ccccc1)c1ccccc1
- T/C (dose: 25.0 mg/kg/injection, schedule: Q04DX002 (ip), vehicle: saline): 98 % of control
- T/C (dose: 50.0 mg/kg/injection, schedule: Q04DX002 (ip), vehicle: saline): 105 % of control
- T/C (dose: 100.0 mg/kg/injection, schedule: Q04DX002 (ip), vehicle: saline): 98 % of control and 91 % of control

Compound: CC(=O)Nc1cccc(OC(=O)Nc2ccccc2F)c1
- T/C [1]: 91 % of control
- T/C [2]: 101 % of control
- T/C [3]: 112 % of control

Compound: C/C(=C/c1c(Br)cc(Br)c(N)c1Br)C(=O)O
- T/C (dose: 100.0 mg/kg/injection, schedule: Q04DX003 (ip), vehicle: saline): 100 % of control
- T/C (dose: 200.0 mg/kg/injection, schedule: Q04DX003 (ip), vehicle: saline): 102 % of control
- T/C (dose: 400.0 mg/kg/injection, schedule: Q04DX003 (ip), vehicle: saline): 102 % of control

Compound: CCN(CC)CCNC(c1ccccc1)C(Cl)(Cl)Cl (configuration not stated)
- T/C [13]: 100 % of control

Compound: COc1ccccc1C(=O)N/N=C\c1c[nH]c2ccccc12
- T/C [7]: 93 % of control
- T/C [8]: 89 % of control
- T/C [9]: 89 % of control

Compound: NC(=O)NC(=O)NC(N)=O
- T/C [7]: 94 % of control
- T/C [8]: 102 % of control
- T/C [9]: 102 % of control

Compound: COc1cc(C)ccc1C1=CCCC1
- T/C (dose: 37.5 mg/kg/injection, schedule: Q01DX009 (ip), vehicle: saline): 116 % of control
- T/C (dose: 75.0 mg/kg/injection, schedule: Q01DX001 (ip), vehicle: acetone): 102 % of control
- T/C (dose: 75.0 mg/kg/injection, schedule: Q01DX009 (ip), vehicle: saline): 111 % of control
- T/C (dose: 150.0 mg/kg/injection, schedule: Q01DX001 (ip), vehicle: acetone): 91 % of control
- T/C (dose: 150.0 mg/kg/injection, schedule: Q01DX009 (ip), vehicle: saline): 106 % of control
- T/C (dose: 225.0 mg/kg/injection, schedule: Q01DX009 (ip), vehicle: acetone): 86 % of control
- T/C (dose: 300.0 mg/kg/injection, schedule: Q01DX001 (ip), vehicle: acetone): 89 % of control

Compound: Cc1cc(Cl)ccc1OC(=O)COc1cc(Cl)c(Cl)cc1Cl
- T/C (dose: 1.56 mg/kg/injection, schedule: Q04DX002 (ip), vehicle: Klucel (hydroxypropylcellulose) (HPC)): 108 % of control
- T/C (dose: 3.13 mg/kg/injection, schedule: Q04DX002 (ip), vehicle: Klucel (hydroxypropylcellulose) (HPC)): 108 % of control
- T/C (dose: 6.25 mg/kg/injection, schedule: Q04DX002 (ip), vehicle: Klucel (hydroxypropylcellulose) (HPC)): 105 % of control
- T/C (dose: 12.5 mg/kg/injection, schedule: Q04DX002 (ip), vehicle: Klucel (hydroxypropylcellulose) (HPC)): 95 % of control
- T/C (dose: 25.0 mg/kg/injection, schedule: Q04DX002 (ip), vehicle: Klucel (hydroxypropylcellulose) (HPC)): 100 % of control
- T/C (dose: 50.0 mg/kg/injection, schedule: Q04DX002 (ip), vehicle: Klucel (hydroxypropylcellulose) (HPC)): 100 % of control

Compound: O=C(Nc1ccc(C2=NCCN2)cc1)c1cc(C(=O)Nc2ccc(C3=NCCN3)cc2)cc([N+](=O)[O-])c1
- T/C (dose: 111.0 mg/kg/injection, schedule: Q01DX Z (ip), vehicle: methylcellulose (MC)): 100 % of control
- T/C (dose: 167.0 mg/kg/injection, schedule: Q01DX Z (ip), vehicle: methylcellulose (MC)): 104 % of control
- T/C (dose: 250.0 mg/kg/injection, schedule: Q01DX Z (ip), vehicle: methylcellulose (MC)): 105 % of control and 207 % of control
- T/C (dose: 375.0 mg/kg/injection, schedule: Q01DX Z (ip), vehicle: methylcellulose (MC)): 168 % of control
- T/C (dose: 512.0 mg/kg/injection, schedule: Q01DX Z (ip), vehicle: methylcellulose (MC)): 234 % of control
- T/C (dose: 768.0 mg/kg/injection, schedule: Q01DX Z (ip), vehicle: methylcellulose (MC)): 268 % of control

Compound: CN=C(N)NC
- T/C (dose: 50.0 mg/kg/injection, schedule: Q01DX009 (ip), vehicle: saline): 94 % of control
- T/C (dose: 100.0 mg/kg/injection, schedule: Q01DX009 (ip), vehicle: saline): 100 % of control
- T/C [4]: 98 % of control
- T/C (dose: 200.0 mg/kg/injection, schedule: Q01DX009 (ip), vehicle: saline): 91 % of control
- T/C [5]: 97 % of control

Compound: CCCCS(=O)(=O)N1CCCC(C)C1 (configuration not stated)
- T/C [7]: 100 % of control
- T/C [8]: 107 % of control
- T/C [9]: 103 % of control

Compound: CNc1ncnc(NC)c1[N+](=O)[O-]
- T/C [7]: 101 % of control
- T/C [8]: 90 % of control

Compound: O=C(O)c1ccccc1C(=O)Nc1ccccc1F
- T/C [10]: 97 % of control
- T/C [2]: 86 % of control
- T/C [11]: 92 % of control
- T/C [3]: 91 % of control
- T/C [12]: 91 % of control

Compound: Cc1c(C#N)oc2c(Cl)cc(Cl)cc12
- T/C [1]: 99 % of control
- T/C [10]: 100 % of control
- T/C [2]: 99 % of control
- T/C [11]: 100 % of control
- T/C [12]: 101 % of control

Compound: CN(C)N=Nc1ccc(C(=O)N/N=C/c2cccc([N+](=O)[O-])c2)cc1
- T/C (dose: 50.0 mg/kg/injection, schedule: Q04DX003 (ip), vehicle: Klucel (hydroxypropylcellulose) (HPC)): 92 % of control
- T/C [10]: 106 % of control
- T/C [11]: 92 % of control

Compound: COc1ccc(/C=C2\N=C(c3ccc([N+](=O)[O-])cc3)OC2=O)cc1
- T/C [1]: 93 % of control
- T/C [2]: 91 % of control
- T/C [3]: 95 % of control

Compound: OCC1SC(n2cnc3c(=S)nc[nH]c32)C(O)C1O (configuration not stated)
- T/C (dose: 200.0 mg/kg/injection, schedule: Q01DX005 (ip), vehicle: saline): 103 % of control

Compound: COc1ccccc1/C=C(\SS/C(=C/c1ccccc1OC)C(=O)O)C(=O)O
- T/C [13]: 120 % of control
- T/C (dose: 200.0 mg/kg/injection, schedule: Q01DX001 (ip), vehicle: saline): 91 % of control

— PubChem BioAssay AID248 (DTP/NCI, 2004)
